Source: patent US20220280644A1, “"TRPswitch" - A STEP FUNCTION CHEMO-OPTOGENETIC LIGAND” (UNIVERSITY OF UTAH RESEARCH FOUNDATION, priority 2019, published 2022)

Tests used:
[1] = Z→E thermal isomerisation kinetics; assay type: physicochemical
Method: In order to determine the Z→E thermal isomerisation kinetics in DMSO-d6 a ˜20 mM solution of the relevant compound was irradiated using a Luzchem LZC-4V photoreactor fitted with 12×8 W LZC-420 lamps (420 nm peak emission) until no further change was observable by ^1H NMR. For 30% water:DMSO samples, a 15 μM solution of the relevant compound was irradiated in a quartz cuvette using 365 nm LEDs (3×800 mW Nichia NCSU276A) until no further change was observed by UV-Vis spectroscopy. Compounds (˜25 μM solutions in DMSO) were treated analogously. In the case of compounds studied by NMR, the change in Z-isomer percentage was followed as a function of time through integration of the relevant peaks. […]
For data collected via ^1H NMR, the natural log of the Z isomer concentration was plotted against time to yield a straight line implying first order kinetics. The gradient of this line was used to determine the rate constant for Z→E conversion from which the thermal half-life could be calculated:
For data collected via UV-Vis Spectroscopy, absorbance data at a fixed wavelength was fitted using the following, first order equation: […]
where k represents the rate constant; A∞, A0 and At are the absorbances of the pure E-state, Z-rich state, and time t, respectively. […]

mouse TRPA1 (mTRPA1) = biological target: T1, mouse TRPA1 (mTRPA1) (Mus musculus, UniProt Q8BLA8); test: Rescue experiment, Trpa1b−/− embryos expressing mTRPA1 in Rohon-beard neurons; assay type: in vivo, zebrafish; conditions: 20 μM, motion within 5 s after 1 s WL3
T1 construct: 2A peptide (remnant stays on the channel) (C); mCherry (separated at the 2A site) (C, cleaved yes); expressed in transfected cells; host or cells: Rohon-Beard neurons of Trpa1b−/− zebrafish embryos, in vivo
Method: (§1) For Trpa1b ohnolog and paralog rescue experiments, Trpa1b^−/− embryos were injected with ngn1:zTrpa1b-2A-mCherry (partial plasmid sequence in SEQ ID NO:5), ngn1:zTrpa1a-2A-mCherry, ngn1:hTRPA1-2A-EGFP or ngn1:mTRPA1-2A-mCherry at the 1-cell stage for mosaic Rohon-beard neuron expression. Embryos were screened at 2 dpf for fluorescent expression in Rohon-beard neurons, incubated with 20 μM TRPswitch-B for 1 hr and decapitated posterior to the eyes right before experiments. NA 0.25 5× objective and 1 s WL3 light illumination was used.
(§2) To test the potential cross activity of TRPswitch-B on the zebrafish ohnolog Trpa1a and on mammalian orthologs, zebrafish Trpa1a, mouse TRPA1 or human TRPA1 were transiently re-expressed in the Rohon-beard neurons of mutant Trpa1b^−/− zebrafish and performed light-induced motion response experiments in the presence of TRPswitch-B. Rescue experiments were performed in Trpa1b^−/− zebrafish with transient mosaic re-expression of zebrafish Trpa1b (zTrpa1b), zebrafish Trpa1a (zTrpa1a), mouse TRPA1 (mTRPA1) or human TRPA1 (hTRAP1) in Rohon-beard neurons. Embryos were pre-treated with 20 μM TRPswitch-B and decapitated right before light stimulation to eliminate the light response mediated by the retina (Table 5). […]

human TRPA1 = biological target: T2, human TRPA1 (Homo sapiens, UniProt O75762); test: Rescue experiment, Trpa1b−/− embryos expressing hTRPA1 in Rohon-beard neurons; assay type: in vivo, zebrafish; conditions: 20 μM, motion within 5 s after 1 s WL3
T2 construct: 2A peptide (remnant stays on the channel) (C); EGFP (separated at the 2A site) (C, cleaved yes); expressed in transfected cells; host or cells: Rohon-Beard neurons of Trpa1b−/− zebrafish embryos, in vivo
Method: as §1, §2

[2] = UV-Vis absorbance, E/Z isomerization with violet and green light; assay type: physicochemical; conditions: UV-Vis absorbance in DMSO
Method: Compounds were dissolved in DMSO at 250 μM and 260 μM for TRPswitch-A and TRPswitch-B, respectively and UV-Vis absorbance was measured using a NanoDrop 1000 (Thermo Scientific).

zebrafish Trpa1b = test: Whole cell current in CCD-18Co cells transfected with zebrafish Trpa1b; assay type: cell-based; conditions: CCD-18Co transfected with zTrpa1b
Method: Immortalized HEK293T cells or human colonic fibroblast cells (CCD-18Co; ATCC) were used. HEK293T cells were plated on […] cover slips and transiently transfected with 10 μg of Trpa1b plasmid (pCMV-zTrpa1b-FLAG) (SEQ ID NO:3) and 5 μg of mNeonGreen cDNA (Allele Biotechnology), then grown in a 6 cm plate for 24-48 h. CCD-18Co were cultured in Eagle's minimal essential medium with 10% FBS, 1× penicillin and streptomycin. CCD-18Co cells were plated on 12 mm cover slips and transiently transfected with 5 μg of zTrpa1b plasmid (pCMV-zTrpa1b-FLAG) together with 5 μg of mNeonGreen cDNA (Allele Biotechnology), then grown in a […] plate for 48-72 h. After this time, the cover slips were transferred to a recording chamber containing an extracellular solution composed of 145 mM sodium gluconate, 4 mM KCl, 3 mM MgCl2, 10 mM D-glucose, 10 mM HEPES; pH 7.4 adjusted with NaOH. The internal solution contained 122 mM cesium methane sulfonate, 1.8 mM MgCl2, 9 mM EGTA, 14 mM creatine phosphate (sodium salt), 4 mM Mg-ATP, 0.3 mM Na-GTP, 10 mM HEPES, pH 7.2 adjusted with CsOH. […] Whole cell currents were measured on an Axopatch 200B amplifier (Molecular De-vices) under the control of pClamp software. […] Basal Trpa1b whole cell currents were measured with a ramp protocol (˜100 to +100 mV, at a holding potential of 0 mV). […] The p values were calculated using a two-tailed, paired Student's t-test.

T2 sequence (O75762 whole entry): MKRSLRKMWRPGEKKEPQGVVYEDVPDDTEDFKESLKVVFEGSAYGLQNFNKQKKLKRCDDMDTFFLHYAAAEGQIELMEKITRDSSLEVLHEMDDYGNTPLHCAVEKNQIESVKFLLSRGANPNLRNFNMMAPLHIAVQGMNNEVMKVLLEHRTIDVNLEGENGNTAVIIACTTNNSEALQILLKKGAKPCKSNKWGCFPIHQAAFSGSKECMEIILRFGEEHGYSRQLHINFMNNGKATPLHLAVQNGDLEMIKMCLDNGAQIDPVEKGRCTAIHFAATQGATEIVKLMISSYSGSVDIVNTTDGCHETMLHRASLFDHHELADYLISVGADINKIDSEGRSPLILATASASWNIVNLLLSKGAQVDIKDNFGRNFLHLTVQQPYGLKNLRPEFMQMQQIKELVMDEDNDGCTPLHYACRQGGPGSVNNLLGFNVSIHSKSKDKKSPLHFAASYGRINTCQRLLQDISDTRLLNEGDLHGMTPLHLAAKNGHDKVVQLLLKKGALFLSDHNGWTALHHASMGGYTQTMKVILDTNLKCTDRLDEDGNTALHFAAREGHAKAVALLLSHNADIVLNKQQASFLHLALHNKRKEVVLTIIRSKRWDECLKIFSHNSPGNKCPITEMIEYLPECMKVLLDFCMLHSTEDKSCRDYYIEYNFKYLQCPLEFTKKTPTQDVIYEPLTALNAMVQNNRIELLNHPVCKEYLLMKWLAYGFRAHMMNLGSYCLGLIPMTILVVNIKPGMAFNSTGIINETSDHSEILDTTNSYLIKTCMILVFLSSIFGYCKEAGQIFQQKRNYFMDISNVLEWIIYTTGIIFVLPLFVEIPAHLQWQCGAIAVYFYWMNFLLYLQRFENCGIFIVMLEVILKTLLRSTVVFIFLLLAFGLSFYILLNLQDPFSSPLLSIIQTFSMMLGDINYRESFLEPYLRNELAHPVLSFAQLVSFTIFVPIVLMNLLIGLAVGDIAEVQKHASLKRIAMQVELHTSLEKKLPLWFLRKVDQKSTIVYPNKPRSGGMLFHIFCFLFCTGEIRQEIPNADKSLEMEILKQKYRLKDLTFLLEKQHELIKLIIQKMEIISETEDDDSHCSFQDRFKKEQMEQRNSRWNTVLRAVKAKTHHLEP
T1 sequence (Q8BLA8 whole entry): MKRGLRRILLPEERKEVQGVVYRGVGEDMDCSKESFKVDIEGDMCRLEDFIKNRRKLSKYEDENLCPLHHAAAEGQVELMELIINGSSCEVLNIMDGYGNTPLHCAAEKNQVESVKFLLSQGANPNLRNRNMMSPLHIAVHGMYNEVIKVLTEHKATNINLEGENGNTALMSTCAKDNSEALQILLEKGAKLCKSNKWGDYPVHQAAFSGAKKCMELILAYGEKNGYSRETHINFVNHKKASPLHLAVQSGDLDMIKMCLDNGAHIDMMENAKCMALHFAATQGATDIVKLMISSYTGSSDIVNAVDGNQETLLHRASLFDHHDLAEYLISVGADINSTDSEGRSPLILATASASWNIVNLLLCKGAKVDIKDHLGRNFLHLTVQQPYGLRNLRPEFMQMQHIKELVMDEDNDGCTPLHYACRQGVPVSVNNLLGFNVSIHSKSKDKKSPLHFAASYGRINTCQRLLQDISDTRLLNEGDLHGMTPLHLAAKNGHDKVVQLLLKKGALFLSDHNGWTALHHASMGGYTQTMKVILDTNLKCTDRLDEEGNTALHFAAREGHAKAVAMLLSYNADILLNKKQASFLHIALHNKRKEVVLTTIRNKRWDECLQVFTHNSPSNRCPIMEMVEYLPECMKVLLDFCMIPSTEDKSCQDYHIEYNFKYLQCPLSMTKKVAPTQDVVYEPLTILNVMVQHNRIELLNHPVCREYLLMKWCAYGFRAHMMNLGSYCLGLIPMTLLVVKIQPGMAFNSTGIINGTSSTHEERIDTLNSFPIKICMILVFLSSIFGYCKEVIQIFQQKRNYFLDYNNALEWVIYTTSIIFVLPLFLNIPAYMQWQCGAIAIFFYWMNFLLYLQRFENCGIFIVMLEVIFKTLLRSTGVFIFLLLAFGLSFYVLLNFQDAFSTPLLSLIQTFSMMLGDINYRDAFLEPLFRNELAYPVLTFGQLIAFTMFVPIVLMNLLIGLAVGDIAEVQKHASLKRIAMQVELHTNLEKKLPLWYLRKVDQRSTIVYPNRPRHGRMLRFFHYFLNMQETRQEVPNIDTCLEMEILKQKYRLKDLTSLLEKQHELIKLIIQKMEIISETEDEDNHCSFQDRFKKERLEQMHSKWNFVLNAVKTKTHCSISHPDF

thermal half-lives [1]: long thermal half-lives
% response (mouse TRPA1 (mTRPA1)): 0%
% response (human TRPA1): 0%
E/Z photoswitching with violet and green light ([2]; listed as TRPswitch-B): complete return
SMILES: Cc1nn(C)c(C)c1/N=N/c1ccc(NC(=O)c2cccs2)cc1NC(=O)c1cccs1 [Compound 9, (E)-N,N′-(4-((1,3,5-trimethyl-1H-pyrazol-4-yl)diazenyl)-1,3-phenylene)bis(thiophene-2-carboxamide)]
E/Z photoswitching with violet and green light [2]: quantitative photoswitching in both directions
photocurrent on green light (zebrafish Trpa1b): green light-induced decrease in photocurrent
photocurrent on violet light (zebrafish Trpa1b): violet light-induced photocurrent
